From patent publication US10781224B2, “Bis(oxymethyl)phosphinic acid and biogenic metal salts thereof as regulators of plant growth and development” (priority 2016, dated 2020)

Tested on: corn (Krasnodar 385 MV variety)
Assay: Corn seed treatment with BHMPA salts: germinating power
Assay type: in vivo
Protocol: Experimental versions—soaking seeds in BHMPA solutions and solutions of BHMPA Ca, Mg, Na, Co, Mn, Cu, and Zn salts at 1·10^−6-1·10^−12% concentrations (doses). The studies were conducted in laboratory in Petri dishes; seed bed—two layers of filter paper. 50 seeds soaked in water (control) and in the solutions of the tested compounds (experimental) were placed into each dish. Wheat, corn, and rice seeds were exposed for one hour.
Seed germination energy and rate were calculated in percent as an arithmetic mean of the four experimental results (germination energy on the 4th day, wheat germination on the 8th day, rice and corn germination—on the 7th day). Germination was determined based on the germinating power indicators (length of the roots and sprouts and their wet and dry mass per 100 shoots).
The effect of pre-sowing seed treatment with the claimed BHMPA salts of biogenic metals was studied on winter wheat (Vershin variety), corn (Krasnodar 385 MV variety), and rice (Diamant variety).
The above data describe the seed viability only at the initial stage of germination, while the germination ability at the later stage of germination is defined by the initial germinating power. The method for the determination of the germinating power comprises measuring the height of the sprouts and primary roots, as well as the biomass and the dry mass thereof per 100 seedlings. [M. A. Kartuzova. Initial Germinating Power as Method of Biological Assessment of Seed Quality. Selection and Seed Farming, #2, 1953].

[1] = corn seeds, solution concentration 1 · 10^−6%, magnesium salt of BHMPA
[2] = corn seeds, solution concentration 1 · 10^−7%, magnesium salt of BHMPA
[3] = corn seeds, solution concentration 1 · 10^−8%, magnesium salt of BHMPA
[4] = corn seeds, solution concentration 1 · 10^−9%, magnesium salt of BHMPA
[5] = corn seeds, solution concentration 1 · 10^−10%, magnesium salt of BHMPA
[6] = corn seeds, solution concentration 1 · 10^−11%, magnesium salt of BHMPA
[7] = corn seeds, solution concentration 1 · 10^−12%, magnesium salt of BHMPA
[8] = corn, over the tested concentrations

## O=P([O-])(CO)CO.O=P([O-])(CO)CO.[Mg+2] [Mg-salt, Magnesium BHMPA Salt]
corn
  optimum concentration for treating corn seeds before sowing: 1·10^−9%
[1]
  Length, root: 6.4 cm
  Length, root, + % to control: 21%
  Length, sprout: 2.9 cm
  Length, sprout, + % to control: −12%
  Mass, dry, root: 1.60 g/100 plantlings
  Mass, dry, root, + % to control: 9.5%
  Mass, dry, sprout: 1.07 g/100 plantlings
  Mass, dry, sprout, + % to control: 11%
  Mass, wet, root: 10.29 g/100 plantlings
  Mass, wet, root, + % to control: 17%
  Mass, wet, sprout: 7.17 g/100 plantlings
  Mass, wet, sprout, + % to control: 12%
[2]
  Length, root: 7.0 cm
  Length, root, + % to control: 32%
  Length, sprout: 3.3 cm
  Length, sprout, + % to control: 0%
  Mass, dry, root: 1.81 g/100 plantlings
  Mass, dry, root, + % to control: 24%
  Mass, dry, sprout: 1.12 g/100 plantlings
  Mass, dry, sprout, + % to control: 17%
  Mass, wet, root: 10.86 g/100 plantlings
  Mass, wet, root, + % to control: 24%
  Mass, wet, sprout: 7.93 g/100 plantlings
  Mass, wet, sprout, + % to control: 23.5%
[3]
  Length, root: 8.5 cm
  Length, root, + % to control: 60%
  Length, sprout: 3.5 cm
  Length, sprout, + % to control: 6%
  Mass, dry, root: 1.91 g/100 plantlings
  Mass, dry, root, + % to control: 31%
  Mass, dry, sprout: 1.19 g/100 plantlings
  Mass, dry, sprout, + % to control: 24%
  Mass, wet, root: 11.64 g/100 plantlings
  Mass, wet, root, + % to control: 33%
  Mass, wet, sprout: 8.89 g/100 plantlings
  Mass, wet, sprout, + % to control: 38%
[4]
  Length, root: 9.1 cm
  Length, sprout: 3.8 cm
  Mass, dry, root: 2.02 g/100 plantlings
  Mass, dry, root, + % to control: 38%
  Mass, dry, sprout: 1.27 g/100 plantlings
  Mass, dry, sprout, + % to control: 32%
  Mass, wet, root: 12.42 g/100 plantlings
  Mass, wet, root, + % to control: 42%
  Mass, wet, sprout: 10.35 g/100 plantlings
  Mass, wet, sprout, + % to control: 61%
[5]
  Length, root: 8.3 cm
  Length, root, + % to control: 57%
  Length, sprout: 3.6 cm
  Length, sprout, + % to control: 9%
  Mass, dry, root: 1.96 g/100 plantlings
  Mass, dry, root, + % to control: 34%
  Mass, dry, sprout: 1.20 g/100 plantlings
  Mass, dry, sprout, + % to control: 25%
  Mass, wet, root: 11.86 g/100 plantlings
  Mass, wet, root, + % to control: 35%
  Mass, wet, sprout: 8.62 g/100 plantlings
  Mass, wet, sprout, + % to control: 34%
[6]
  Length, root: 8.1 cm
  Length, root, + % to control: 53%
  Length, sprout: 3.0 cm
  Length, sprout, + % to control: −9%
  Mass, dry, root: 1.81 g/100 plantlings
  Mass, dry, root, + % to control: 24%
  Mass, dry, sprout: 1.10 g/100 plantlings
  Mass, dry, sprout, + % to control: 14.5%
  Mass, wet, root: 10.04 g/100 plantlings
  Mass, wet, root, + % to control: 14%
  Mass, wet, sprout: 8.18 g/100 plantlings
  Mass, wet, sprout, + % to control: 27%
[7]
  Length, root: 7.8 cm
  Length, root, + % to control: 47%
  Length, sprout: 2.8 cm
  Length, sprout, + % to control: −15%
  Mass, dry, root: 1.57 g/100 plantlings
  Mass, dry, root, + % to control: 7.5%
  Mass, dry, sprout: 0.94 g/100 plantlings
  Mass, dry, sprout, + % to control: −2%
  Mass, wet, root: 9.18 g/100 plantlings
  Mass, wet, root, + % to control: 5%
  Mass, wet, sprout: 7.04 g/100 plantlings
  Mass, wet, sprout, + % to control: 10%
corn, 1·10^−9% solution
  Length, root, + % to control: 72%
  Length, sprout, + % to control: 15%
  Mass, dry, root, + % to control: 38%
  Mass, dry, sprout, + % to control: 32%
  Mass, wet, root, + % to control: 42%
  Mass, wet, sprout, + % to control: 61%
[8]
  increase of germinating power of the roots: 21%-72%
  sprout length changes: −15% to +15%
